SMILES strings stand for the structures.

A short description of the assay: MIC of the examples against various organisms. Type of assay: cell-based. Conditions: against at least two of the above organisms (12-strain panel). The protocol:
The MIC (μg/ml) of the examples against various organisms was determined: A. baumannii ATCC19606, E. cloacae ATCC23355, E. coli ATCC25922, K. pneumoniae ATCC27736, P. mirabilis ATCC29906, P. aeruginosa ATCC27853, S. maltophilia ATCC13637, S. aureus ATCC43300, S. epidermidis ATCC14990, S. haemolyticus ATCC29970, E. faecalis ATCC29212 and E. faecium ATC19434.
For `COc1ccc2ncc(Cl)c(C(O)CN3C4CCC3CC(NCc3ccc5nonc5c3)C4)c2c1` (single isomer, unassigned) [Example 59, 2-{3-[(Benzo[1,2,5]oxadiazol-5-ylmethyl)-amino]-8-aza-bicyclo[3.2.1]oct-8-yl}-1-(3-chloro-6-methoxy-quinolin-4-yl)-ethanol], the MIC is at most 2 µg/mL. Regarding `COc1ccc2nccc(C(O)CN3C4CCC3CC(NCc3ccc5c(c3)NC(=O)CO5)C4)c2n1` (single isomer, unassigned) [Example 8, 6-({8-[2-Hydroxy-2-(6-methoxy-[1,5]-naphthyridin-4-yl)-ethyl]-8-aza-bicyclo[3.2.1]oct-3-ylamino}-methyl)-4H-benzo[1,4]oxazin-3-one], the MIC is at most 2 µg/mL.

As to `COc1ccc2ncc(Cl)c(C(O)CN3CCOC(CNC/C=C/c4ccccc4)C3)c2c1` (single isomer, unassigned) [Example 77, 1-(3-Chloro-6-methoxy-quinolin-4-yl)-2-{2-[((E)-3-phenyl-allylamino)-methyl]-morpholin-4-yl}-ethanol], the MIC is at most 2 µg/mL. The same measure for `COc1cnc2cccc(C(O)CN3CCCC(CNCc4ccc5c(c4)OCO5)C3)c2c1` (single isomer, unassigned) [Example 44, 2-(3-{[(Benzo[1,3]dioxol-5-ylmethyl)-amino]-methyl}-piperidin-1-yl)-1-(3-methoxy-quinolin-5-yl)-ethanol]: at most 2 µg/mL. The same measure for `COc1ccc2ncc(Cl)c(C(O)CN3C4CCC3CC(NCc3cc5c(cc3F)SCC(=O)N5)C4)c2n1` (stereo not drawn) [Example 28, 6-({8-[2-(3-Chloro-6-methoxy-[1,5]-naphthyridin-4-yl)-2-hydroxy-ethyl]-8-aza-bicyclo[3.2.1]oct-3-ylamino}-methyl)-7-fluoro-4H-benzo[1,4]thiazin-3-one]: at most 2 µg/mL; for `COc1cnc2cccc(C(O)CN3C4CCC3CC(NCc3ccc5c(c3)OCCO5)C4)c2c1` (stereo not drawn) [Example 39, 2-{3-[(2,3-Dihydro-benzo[1,4]dioxin-6-ylmethyl)-amino]-8-aza-bicyclo[3.2.1]oct-8-yl}-1-(3-methoxy-quinolin-5-yl)-ethanol]: at most 2 µg/mL.

For orientation: MIC means the smallest concentration in the dilution series that meets the test's criterion for growth inhibition.

These data come from patent publication US20070244103A1, “Novel Compounds Having an Anti-Bacterial Activity” (Morphochem Aktiengesellschaft Fur Kombinatorische Chemie, priority 2004, published 2007).
